Assay results from patent US3989845A, “Anesthetic chlorocyclopropanes” (priority 1974, dated 1976).

System: Mice
Assay: Inhalation anesthesia test in mice, 10 minutes in a rotating drum (pinch, corneal and righting reflex): AC50, LC50 and anesthetic index
Type: in vivo
Conditions: for AI (anesthetic index, LC50/AC50): calculated from LC50 and AC50, 10 min; for AC50 (minimum concentration required to anesthetize 50% of the mice) / LC50 (minimum concentration required to kill 50% of the mice): inhalation, 10 minutes in rotating drum, at least four graded doses, where two figures are given, the actual value lies between them
Procedure: Mice were exposed to the anesthetic for a period of 10 minutes in a rotating drum. Observations were then made of the pinch reflex, the corneal reflex and the return of the righting reflex. At least four graded doses were employed to determine the minimum concentration required to anesthetize 50% of the mice used (AC50) and the minimum concentration required to kill 50% of the mice (LC50). The anesthetic index (AI) was then calculated from these minimum concentrations.

| SMILES | AI (anesthetic index, LC50/AC50) | AC50 (minimum concentration required to anesthetize 50% of the mice) | LC50 (minimum concentration required to kill 50% of the mice) |
| --- | --- | --- | --- |
| FC1(F)C(F)(Cl)C1(F)Cl (stereo not drawn) [Example 12, 1,2-Dichlorotetrafluorocyclopropane] | ~ 2 | 6-10 % volume | < 20 % volume |
| CC1(Cl)CC1(F)Cl (stereo not drawn) [Example 9, 1,2-Dichloro-1-fluoro-2-methylcyclopropane] | > 2 | < 1 % volume | 2-4 % volume |
| FC1(F)C(Cl)(Cl)C1(Cl)Cl [Example 13, 1,1,2,2-tetraCl-diF-] | ~ 4 | 0.25 % volume | 1 % volume |
| CC1(F)C(F)(F)C1(Cl)Cl (stereo not drawn) [Example 8, 1,1-diCl-2-CH3-triF-] | 4-6 | < 1 % volume | 4-6 % volume |
| FC1(F)C(F)(Cl)C1(Cl)Cl (stereo not drawn) [Example 10, 1,1,2-triCl-triF-] | > 3 | 1.5 % volume | 2-10 % volume |
| FC1C(F)(F)C1(Cl)Cl (stereo not drawn) [Example 14, 1,1-diCl-2,3,3-triF-] | 2-3 | < 2 % volume | 4-6 % volume |
| FC(F)(F)C1(F)C(F)(F)C1(Cl)Cl (stereo not drawn) [Example 11, 1,1-diCl-2-CF3-triF-] | ~ 2 | 4 % volume | > 10 % volume |
